As a reminder, the MIC50 is the lowest concentration that inhibits either 50% of growth or 50% of the strains tested, depending on the study. Usually pIC50 stands for the negative decadic logarithm of the IC50, by convention in mol/L. A word on the pKd: it is the negative decadic logarithm of the Kd, by convention in mol/L.

SMILES strings stand for the structures. pIC50, pKd: −log10 of the molar value. Converted amounts (≈) assume the structure as drawn. The source made the active and inactive calls. No cut-off for these calls is given here.

For series [1], the system named is Candida albicans. In words: Antifungal activity against FLC-resistant Candida albicans 17# assessed as fungal growth inhibition incubated for 72 hrs by CLSI based susceptibility test. The class given is functional.
For series [2], the system named is Candida albicans. In words: Induction of apoptosis in Candida albicans SC5314 assessed as increase in ROS level at 1 uM/ml incubated for 48 hrs by fluorescence microscopy. The format is functional, organism-based.
A further series relates to Nakaseomyces glabratus. Briefly: Antifungal activity against Candida glabrata assessed as fungal growth inhibition incubated for 72 hrs by CLSI based susceptibility test. The format is functional.
For series [3], the system named is Candida albicans. In words: Induction of apoptosis in Candida albicans SC5314 assessed as necrotic cells incubated for 48 hrs by annexin V-FITC/PI staining based flow cytometry (reference value: 2.12 %). The format is functional.
For series [4], the system named is Candida albicans. In words: Antifungal activity against Candida albicans SC5314 assessed as fungal growth inhibition incubated for 72 hrs by CLSI based susceptibility test. The format is functional.
Series [5] has as its system Candida albicans. In words: Antifungal activity against FLC-resistant Candida albicans CaR assessed as fungal growth inhibition incubated for 72 hrs by CLSI based susceptibility test. The class given is functional.
For series [6], the system named is Candida albicans. Briefly: Antifungal activity against FLC-resistant Candida albicans 632 assessed as fungal growth inhibition incubated for 72 hrs by CLSI based susceptibility test. The format is functional.
The subject of series [7] is Candida albicans. Briefly: Antifungal activity against FLC-resistant Candida albicans 904 assessed as fungal growth inhibition incubated for 72 hrs by CLSI based susceptibility test. The class given is functional.
The subject of series [8] is Candida albicans. In words: Antifungal activity against FLC-resistant Candida albicans 901 assessed as fungal growth inhibition incubated for 72 hrs by CLSI based susceptibility test. The class given is functional.
Another series deals with Candida tropicalis. In words: Antifungal activity against Candida tropicalis ATCC 1369 assessed as fungal growth inhibition incubated for 72 hrs by CLSI based susceptibility test. The format is functional.
The target of series [9] is T1, Lanosterol 14-alpha demethylase (Candida albicans (strain SC5314 / ATCC MYA-2876) (Yeast), UniProt P10613). Briefly: Inhibition of CYP51 in Candida albicans SC5314 assessed as lanosterol level at 4 ug/ml incubated for 16 hrs by GC-MS analysis relative to control. The note with it: at 4 µg/mL. On the set-up: scale not given: the % may be the effect or the level left.

The test system of a further series is Cryptococcus neoformans. In words: Antifungal activity against Cryptococcus neoformans ZKCC 2209 assessed as fungal growth inhibition incubated for 72 hrs by CLSI based susceptibility test. The class given is functional.
For series [10], the target named is T1, Lanosterol 14-alpha demethylase. In words: Inhibition of CYP51 in Candida albicans SC5314 using lanosterol as substrate incubated for 60 mins by HPLC analysis.
Series [11] has the same target. Briefly: Inhibition of CYP51 in Candida albicans SC5314 assessed as ergosterol level at 4 ug/ml incubated for 16 hrs by GC-MS analysis (reference value: 92.07 %). The note with it: at 4 µg/mL. On the set-up: scale not given: the % may be the effect or the level left.
The test system of series [12] is Candida albicans. Briefly: Induction of apoptosis in Candida albicans SC5314 assessed as apoptotic cells incubated for 48 hrs by annexin V-FITC/PI staining based flow cytometry (reference value: 2.12 %). The class given is functional. For orientation: In flow cytometry, cells or beads pass a laser one at a time.
For series [13], the target named is T2, Programmed cell death 1 ligand 1 (Homo sapiens, UniProt Q9NZQ7). In words: Binding affinity to PD-L1 (unknown origin) immobilized on carboxy chip assessed as dissociation constant by SPR analysis. Background: In SPR one partner is held on a chip, and binding of the other changes the refractive index at the surface.
The target of series [14] is T2, Programmed cell death 1 ligand 1. In words: Inhibition of human PD-L1 incubated for 15 mins by ELISA method. For orientation: In an ELISA, binding on a coated surface is turned into a signal by an enzyme label.
For the next series, the system named is Aspergillus fumigatus. In words: Antifungal activity against Aspergillus fumigatus KM8001 assessed as fungal growth inhibition incubated for 72 hrs by CLSI based susceptibility test. The format is functional.
In series [15] the target is T1, Lanosterol 14-alpha demethylase. Briefly: Inhibition of CYP51 in Candida albicans SC5314 assessed as unknown sterol level at 4 ug/ml incubated for 16 hrs by GC-MS analysis (reference value: 5.35 %). Also on record: scale not given: the % may be the effect or the level left. The note with it: at 4 µg/mL.
Series [16] has as its system Candida albicans. In words: Induction of mitochondrial membrane depolarization in Candida albicans SC5314 by JC-1 staining based flow cytometry (reference value: 12.51 %). The format is functional.
Series [17] in a line: Toxicity in BALB/c mouse infected with Candida albicans 901 assessed as pathological change in kidney at 0.5 ug/g administered 6 times measured after 4 days in presence of Ketoconazole by H and E staining based analysis. The class given is tissue-based. Conditions: in vivo, 96 h, dose 0.5 µg/g, time 4 day.
Series [18] can be described thus: Toxicity in BALB/c mouse infected with Candida albicans 901 assessed as pathological change in liver at 0.5 ug/g administered 6 times measured after 4 days in presence of Ketoconazole by H and E staining based analysis. The format is tissue-based. The note with it: in vivo, 96 h, dose 0.5 µg/g, time 4 day.
A short description of series [19]: Toxicity in BALB/c mouse infected with Candida albicans 901 assessed as pathological change in spleen at 0.5 ug/g administered 6 times measured after 4 days in presence of Ketoconazole by H and E staining based analysis. The note with it: in vivo, 96 h, dose 0.5 µg/g, time 4 day. The class given is tissue-based.
Series [20] can be described thus: Toxicity in BALB/c mouse infected with Candida albicans 901 assessed as pathological change in heart at 0.5 ug/g administered 6 times measured after 4 days in presence of Ketoconazole by H and E staining based analysis. The format is tissue-based. The note with it: in vivo, 96 h, dose 0.5 µg/g, time 4 day.
Series [21] deals with Candida albicans. Briefly: Induction of immunity in BALB/c mouse infected with Candida albicans 901 assessed as decrease in PD-L1 level at 0.5 ug/g administered 6 times measured after 4 days in presence of Ketoconazole by Western blot analysis. The format is functional, organism-based. The note with it: dose 0.5 µg/g, time 4.0 day.
Series [22] deals with Candida albicans. Briefly: Antifungal activity against Candida albicans 901 infected in BALB/c mouse assessed as inhibition of fungal proliferation at 0.5 ug/g administered 6 times measured after 4 days in presence of Ketoconazole by Masson staining based analysis. The class given is functional, organism-based. Conditions: dose 0.5 µg/g, time 4.0 day.
Series [23] can be described thus: Toxicity in BALB/c mouse infected with Candida albicans 901 assessed as pathological change in lung at 0.5 ug/g administered 6 times measured after 4 days in presence of Ketoconazole by H and E staining based analysis. The note with it: in vivo, 96 h, dose 0.5 µg/g, time 4 day. The class given is tissue-based.
Series [24] has as its system Candida albicans. In words: Antifungal activity against Candida albicans 901 infected in BALB/c mouse assessed as decrease in collagen fiber content at 0.5 ug/g administered 6 times measured after 4 days in presence of Ketoconazole by Masson staining based analysis. Conditions: dose 0.5 µg/g, time 4.0 day. The class given is functional, organism-based.
The subject of series [25] is Candida albicans. In words: Induction of immunity in BALB/c mouse infected with Candida albicans 901 assessed as decrease in PD-L1 level at 0.5 ug/g administered 6 times measured after 4 days in presence of Ketoconazole by IHC analysis. The class given is functional, organism-based. Conditions: dose 0.5 µg/g, time 4.0 day.
Series [26] has as its system Candida albicans. Briefly: Antifungal activity against Candida albicans 901 infected in BALB/c mouse assessed as decrease in collagen fiber content at 0.5 ug/g administered 6 times measured after 4 days in presence of Ketoconazole by GMS staining based analysis. Conditions: dose 0.5 µg/g, time 4.0 day. The class given is functional, organism-based.
Series [27] has as its system Candida albicans. In words: Antifungal activity against Candida albicans 901 infected in BALB/c mouse assessed as repair of tissue damage at 0.5 ug/g administered 6 times measured after 4 days in presence of Ketoconazole by Masson staining based analysis. The class given is functional, organism-based. Conditions: dose 0.5 µg/g, time 4.0 day.
Series [28] concerns Candida albicans. Briefly: Antifungal activity against Candida albicans 901 infected in BALB/c mouse assessed as inhibition of fungal proliferation at 0.5 ug/g administered 6 times measured after 4 days in presence of Ketoconazole by GMS staining based analysis. The format is functional, organism-based. The note with it: dose 0.5 µg/g, time 4.0 day.
Series [29] has as its system Candida albicans. In words: Antifungal activity against Candida albicans 901 infected in BALB/c mouse assessed as repair of tissue damage at 0.5 ug/g administered 6 times measured after 4 days in presence of Ketoconazole by GMS staining based analysis. The note with it: dose 0.5 µg/g, time 4.0 day. The format is functional, organism-based.

T1 sequence (P10613 whole entry): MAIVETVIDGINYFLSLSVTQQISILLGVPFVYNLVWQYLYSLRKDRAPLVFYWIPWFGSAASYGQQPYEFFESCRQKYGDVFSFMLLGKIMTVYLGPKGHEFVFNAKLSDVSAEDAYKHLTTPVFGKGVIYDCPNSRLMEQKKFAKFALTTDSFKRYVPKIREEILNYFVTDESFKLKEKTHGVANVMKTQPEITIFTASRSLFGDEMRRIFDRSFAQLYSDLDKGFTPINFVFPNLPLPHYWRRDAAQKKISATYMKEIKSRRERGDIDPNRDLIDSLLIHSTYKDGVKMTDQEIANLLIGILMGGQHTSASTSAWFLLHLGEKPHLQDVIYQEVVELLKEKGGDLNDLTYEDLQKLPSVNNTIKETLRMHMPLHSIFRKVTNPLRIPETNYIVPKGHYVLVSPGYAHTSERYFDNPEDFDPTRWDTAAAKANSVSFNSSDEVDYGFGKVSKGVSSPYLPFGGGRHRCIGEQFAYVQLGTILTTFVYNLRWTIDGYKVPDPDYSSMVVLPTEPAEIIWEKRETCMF
T2 sequence (Q9NZQ7 whole entry): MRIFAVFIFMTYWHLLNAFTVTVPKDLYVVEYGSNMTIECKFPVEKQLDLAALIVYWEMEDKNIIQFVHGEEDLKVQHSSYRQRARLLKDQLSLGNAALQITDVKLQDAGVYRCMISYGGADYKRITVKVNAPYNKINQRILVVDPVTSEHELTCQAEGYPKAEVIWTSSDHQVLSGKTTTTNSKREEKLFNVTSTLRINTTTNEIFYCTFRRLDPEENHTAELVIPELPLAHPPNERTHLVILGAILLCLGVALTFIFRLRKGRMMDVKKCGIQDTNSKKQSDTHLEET

Turning to `CC(C)OC(=O)[C@@H](Cn1ccnc1)NC(=O)C1CCCN(C(=O)c2cccc(-c3ccccc3)c2)C1` (some centres undefined), the MIC50 with Candida albicans [1] was no less than 8 µg/mL; with Nakaseomyces glabratus, 0.25 µg/mL (≈ 0.512 µM); with Candida albicans [4], 0.25 µg/mL (≈ 0.512 µM); in the series with Candida albicans [5] it was 2 µg/mL (≈ 4.09 µM); in the series with Candida albicans [6], 4 µg/mL (≈ 8.19 µM); in the series on Candida albicans [7] it was no less than 8 µg/mL. Moreover, the MIC50 amounted to 4 µg/mL (≈ 8.19 µM) with Candida albicans [8], 0.5 µg/mL (≈ 1.02 µM) in the series on Candida tropicalis, 0.5 µg/mL (≈ 1.02 µM) in the series on Cryptococcus neoformans and 2 µg/mL (≈ 4.09 µM) in the series on Aspergillus fumigatus. Besides, the outcome in the series on Candida albicans [2] was Active. Further, the Activity with Candida albicans [3] amounted to 25.91%; in series [9], 12.71%; in [11], 16.08%; in the series on Candida albicans [12], 25.91%; in series [15], 4.96%; in the series with Candida albicans [16], 34.74%. The pIC50 is 6.39 in series [10] and 7.20 in series [14]. Further, in [13], the pKd was 7.82.

Regarding `Cc1c(CN2CCCC(C(=O)N[C@H](Cn3cncn3)C(=O)OC(C)C)C2)cccc1-c1ccccc1` (some centres undefined), the MIC50 came to 4 µg/mL (≈ 8.17 µM) with Candida albicans [1]; 0.5 µg/mL (≈ 1.02 µM) with Nakaseomyces glabratus; 0.125 µg/mL (≈ 0.255 µM) with Candida albicans [4]; 4 µg/mL (≈ 8.17 µM) in the series on Candida albicans [5]; 2 µg/mL (≈ 4.08 µM) in the series on Candida albicans [6]; 4 µg/mL (≈ 8.17 µM) with Candida albicans [7]. Also, the MIC50 is no less than 8 µg/mL with Candida albicans [8], 0.25 µg/mL (≈ 0.511 µM) in the series on Candida tropicalis, 1 µg/mL (≈ 2.04 µM) in the series with Cryptococcus neoformans and 2 µg/mL (≈ 4.08 µM) with Aspergillus fumigatus. The outcome in the series with Candida albicans [2] was Active. Further, the Activity in the series on Candida albicans [3] was determined as 25.91%; in series [9], 11.25%; in [11] it was 14.71%; in the series on Candida albicans [12], 25.91%; in series [15], 4.19%; with Candida albicans [16] it was 34.74%. Also, the results for the pIC50 in [10] and in series [14] were 6.49 and 7.46, respectively. Besides, in [13], the pKd is 7.82.

`OC(Cn1cncn1)(Cn1cncn1)c1ccc(F)cc1F` [FLUCONAZOLE]: the MIC50 in the series with Candida albicans [1] is no less than 8 µg/mL; in the series on Nakaseomyces glabratus, 0.25 µg/mL (≈ 0.816 µM); with Candida albicans [4], 0.5 µg/mL (≈ 1.63 µM); with Candida albicans [5], no less than 8 µg/mL; in the series on Candida albicans [6], no less than 8 µg/mL; with Candida albicans [7], no less than 8 µg/mL. Besides, the MIC50 in the series on Candida albicans [8] was no less than 8 µg/mL; with Candida tropicalis, 0.5 µg/mL (≈ 1.63 µM); in the series on Cryptococcus neoformans it was 1 µg/mL (≈ 3.27 µM); in the series on Aspergillus fumigatus, greater than 8 µg/mL.

For the molecule `O=C(O)[C@@H](CO)NCc1cc(Cl)c(OCc2cccc(-c3ccccc3)c2Br)cc1OCc1cccnc1`, the Activity entry in series [17], in series [18], in series [19], in series [20] and in series [23] was “Non-Toxic” in each case. Further, the result in the series on Candida albicans [21], in the series with Candida albicans [24], in the series on Candida albicans [25], in the series with Candida albicans [26], in the series on Candida albicans [27] and in the series on Candida albicans [29] was Active. For the same molecule, the inhibition entry in the series on Candida albicans [22] and with Candida albicans [28] was “Active” throughout. This molecule also gave a pIC50 in [14] of 7.66.

As for `COC(=O)[C@@H](Cn1cncn1)NC(=O)C1CCCN(C(=O)c2cccc(-c3ccccc3)c2)C1` (some centres undefined), the MIC50 with Nakaseomyces glabratus turned out to be 0.5 µg/mL (≈ 1.08 µM); with Candida albicans [4], 0.5 µg/mL (≈ 1.08 µM); in the series on Candida tropicalis it was 1 µg/mL (≈ 2.17 µM); with Cryptococcus neoformans, 1 µg/mL (≈ 2.17 µM); in the series with Aspergillus fumigatus, 8 µg/mL (≈ 17.3 µM).

These data come from ChEMBL document CHEMBL5365529, “Construction and Evaluation of Novel Dual-function Antifungal Inhibitors and Covalent Organic Framework Carriers Based on the Infection Microenvironment” (J Med Chem, 2023).
